Measurements as given in US9684238B2, “Fluorene-type compound, photopolymerization initiator comprising said fluorene-type compound, and photosensitive composition containing said photopolymerization initiator” (TOKYO OHKA KOGYO CO., LTD., priority 2012, dated 2017).

Columns and labels:
[1] = Evaluation 3: 20-μm pattern line width of black photosensitive composition; details: black composition (carbon black, cardo resin), initiator 0.4 mmol
In short: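 Composition spin-coated on glass to 1.0 μm dry thickness, dried 90 °C for 10 min, exposed at 10–80 mJ/cm^2 via high-pressure mercury lamp through 20 μm negative mask, developed in 0.1 wt % TMAH, rinsed. Line width of remaining cured film measured; larger width means higher sensitivity.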

[2] = Transmittance of transparent cured film; assay type: physicochemical; details: for Average transmittance (700 nm to 400 nm) Transparent cured film / Transmittance (400 nm) Transparent cured film: cured at exposure energy quantity 80 mJ/cm^2
In short: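 Films cured at 80 mJ/cm^2 exposure, otherwise prepared as in the earlier film evaluation. Spectrophotometer read in quartz cell, 1 cm path, giving transmittance (%) at 400 nm and average transmittance (%) over 400–700 nm.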

[3] = Average transmittance of composition; assay type: physicochemical; details: photosensitive composition, quartz cell, optical path length 1 cm
Experimental: The average transmittance (%) of each of the photosensitive resin compositions obtained in Examples 1 to 9, Examples 2-1 to 2-10, and Comparative Examples 1 and 2 in the range of from 400 nm to 700 nm was measured with a spectrophotometer (manufactured by Hitachi High-Technologies Corporation, trade name: “U-3900H”, quartz cell, optical path length; 1 cm).

[4] = Decomposition point by thermal analysis (TG-DTA); assay type: physicochemical; details: 5.0 mg
Experimental: The compounds 1, 2, 4, 6, 8, 9, 11, 12, 13, 15, 16, D-1, D-3, D-4, D-7, D-8, D-9, D-12, D-14, D-15, D-20, C-1, and C-2 were each subjected to measurement with a thermal analysis apparatus (TG-DTA) (manufactured by Rigaku Corporation, trade name: “Thermo Plus EVO TG 8120”) by using 5.0 mg thereof.

[5] = Solubility in PGME, PGMEA and ethyl lactate; assay type: physicochemical; details: for Solubility Ethyl lactate: in 100 parts by weight of ethyl lactate; for Solubility Ethyl lactate / Solubility PGMEA / Solubility PGME: room temperature; for Solubility PGMEA: in 100 parts by weight of propylene glycol monomethyl ether acetate; for Solubility PGME: in 100 parts by weight of propylene glycol monomethyl ether; for solubility (in words): photopolymerization initiator containing the compound
[6] = Absorption coefficient (absorbance of 0.001% solution in tetrahydrofuran); assay type: physicochemical; details: for Λ max (absorption maximum wavelength): 0.001% (wt/vol) in tetrahydrofuran, from 280 nm to 400 nm; for Absorption coefficient at 365 nm / Absorption coefficient at Λ max: 0.001% (wt/vol) solution in tetrahydrofuran
In short: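 Absorbance of a 0.001% (wt/vol) solution in tetrahydrofuran recorded by spectrophotometer. Absorption maximum wavelength (λmax) taken from the spectrum within 280–400 nm.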

[7] = Evaluation 1: 20-μm pattern line width of transparent photosensitive composition; details: for 20-μm pattern line width: transparent composition, initiator 0.4 mmol
[8] = as above; details: initiator 0.4 mmol, exposure energy quantity 30 mJ/cm^2
[9] = photopolymerization initiator containing the compound
[10] = exposure energy quantity 5 mJ/cm^2
[11] = exposure energy quantity 10 mJ/cm^2
[12] = exposure energy quantity 20 mJ/cm^2
[13] = exposure energy quantity 40 mJ/cm^2

| SMILES | 20-μm pattern line width ([1]; 10 mJ/cm^2) | 20-μm pattern line width ([1]; 20 mJ/cm^2) | 20-μm pattern line width ([1]; 40 mJ/cm^2) | 20-μm pattern line width ([1]; 60 mJ/cm^2) | 20-μm pattern line width ([1]; 80 mJ/cm^2) | Average transmittance (700 nm to 400 nm) Transparent cured film [2] | Transmittance (400 nm) Transparent cured film [2] | Average transmittance (700 nm to 400 nm) Solution [3] | Decomposition point [4] | Solubility Ethyl lactate [5] | Solubility PGMEA [5] | Solubility PGME [5] | solubility (in words) [5] | Λ max (absorption maximum wavelength) [6] | Absorption coefficient at 365 nm [6] | Absorption coefficient at Λ max [6] | 20-μm pattern line width [7, 10] | 20-μm pattern line width [7, 11] | 20-μm pattern line width [7, 12] | 20-μm pattern line width [7, 13] | also measured |
| --- | --- | --- | --- | --- | --- | --- | --- | --- | --- | --- | --- | --- | --- | --- | --- | --- | --- | --- | --- | --- | --- |
| CCCC1(CCC)c2cc(C(CCCCl)=NOC(C)=O)ccc2-c2ccc([N+](=O)[O-])cc21 [Compound D-12] | 19.1 | 20.5 | 21.6 | 22.5 | 22.7 | 99.7% | 93.6% | 79.9% | 174.7 °C | B (An amount in the range of from 5 parts by weight or more to less than 10 parts by weight of the photopolymerization initiator is dissolved.) | A (10 Parts by weight or more of the photopolymerization initiator is dissolved.) | A (10 Parts by weight or more of the photopolymerization initiator is dissolved.) | additionally excellent solubility | 345.5 nm | 39.0 mL/mg/cm | 58.4 mL/mg/cm | 19.8 | 20.6 | 21.4 | 22.3 | sensitivity to the active energy ray (in words) [7, 9]: additionally high sensitivity to the active energy ray; 20-μm pattern line width ([7]; exposure energy quantity 80 mJ/cm^2): 23.3 |
| CCCC1(CCC)c2cc(C(=O)c3ccc([N+](=O)[O-])cc3)ccc2-c2ccc(C(C)=NOC(C)=O)cc21 [Compound D-7] |  |  |  |  |  | 99.3% | 96.1% | 86.0% | 250.3 °C | D (Less than 2 parts by weight of the photopolymerization initiator is dissolved.) | D (Less than 2 parts by weight of the photopolymerization initiator is dissolved.) | D (Less than 2 parts by weight of the photopolymerization initiator is dissolved.) |  | 341.5 nm | 21.9 mL/mg/cm | 62.9 mL/mg/cm | 19.3 | 20.2 | 20.8 | 22.6 | 20-μm pattern line width [8]: 21.4 |
| CCCC1(CCC)c2cc(C(=O)c3ccc([N+](=O)[O-])cc3)ccc2-c2ccc(C(=NOC(C)=O)C(C)C)cc21 (mixture of isomers) [Compound D-8] | 18.7 | 18.7 | 20.0 | 20.7 | 21.1 | 100.0% | 98.0% | 87.0% | 182.6 °C | A (10 Parts by weight or more of the photopolymerization initiator is dissolved.) | A (10 Parts by weight or more of the photopolymerization initiator is dissolved.) | A (10 Parts by weight or more of the photopolymerization initiator is dissolved.) | additionally excellent solubility | 335.5 nm | 10.9 mL/mg/cm | 52.1 mL/mg/cm | 19.1 | 19.7 | 20.0 | 21.9 | transparency of photosensitive composition and formed product (in words) [2, 9]: additionally excellent transparency; 20-μm pattern line width [8]: 21.3 |
